The solubility is how much of the substance goes into solution per volume. A higher solubility goes with a readily soluble substance.

In brackets after ≈: the same amount, converted by molar mass.

Data set [1] deals with human serotonin transporter (Homo sapiens, UniProt P31645). Description: human serotonin transporter assay (in-house). It is filed as binding. The following applies: initial experiments, in-house assays. The source says:
In initial experiments using in-house assays, 4-[2-dimethylamino-1-(4-hydroxy-phenyl)-ethyl]-tetrahydro-pyran-4-ol has been found active in a human serotonin transporter assay.

Data set [2] in a line: Solution stability in aqueous solutions. It is filed as physicochemical. The following applies: room temperature, all aqueous solutions (pH 1.25-8.8).
A short description of a further data set: pH-solubility profile. It is filed as physicochemical. The following applies: aqueous solution, thermodynamic from solid. The source says:
FIG. 4 provides a chart of the pH - solubility profile of 4-[2-dimethylamino-1-(4-phenyl)-ethyl-tetrahydro-pyran-4-ol.

A short description of the next data set: Hygroscopicity profile. Format: physicochemical. The text has this:
FIG. 2 provides a chart of the hygroscopicity profile of 4-[2-dimethylamino-1-(4-phenyl)-ethyl-tetrahydro-pyran-4-ol.

human serotonin transporter, sequence (P31645 whole entry): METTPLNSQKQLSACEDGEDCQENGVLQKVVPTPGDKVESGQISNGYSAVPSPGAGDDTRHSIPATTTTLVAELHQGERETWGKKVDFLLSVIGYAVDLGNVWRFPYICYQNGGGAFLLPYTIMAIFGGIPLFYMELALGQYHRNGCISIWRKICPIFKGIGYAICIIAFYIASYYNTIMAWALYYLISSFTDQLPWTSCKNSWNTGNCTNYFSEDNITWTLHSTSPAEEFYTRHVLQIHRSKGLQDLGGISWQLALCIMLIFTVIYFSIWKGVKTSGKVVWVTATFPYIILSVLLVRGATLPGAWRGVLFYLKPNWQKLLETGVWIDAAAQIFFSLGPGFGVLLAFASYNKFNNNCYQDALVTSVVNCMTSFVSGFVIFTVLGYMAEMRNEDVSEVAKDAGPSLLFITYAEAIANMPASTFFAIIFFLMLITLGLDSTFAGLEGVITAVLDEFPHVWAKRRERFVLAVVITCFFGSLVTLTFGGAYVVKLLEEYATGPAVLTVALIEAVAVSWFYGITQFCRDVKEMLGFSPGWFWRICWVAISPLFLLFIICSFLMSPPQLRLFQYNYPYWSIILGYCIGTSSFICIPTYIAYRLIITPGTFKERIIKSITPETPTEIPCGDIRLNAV

Consider `CN(C)CC(c1ccc(O)cc1)C1(O)CCOCC1` (stereo not drawn) [4-[2-Dimethylamino-1-(4-Hydroxy-Phenyl)-ethyl]-Tetrahydro-Pyran-4-ol], for which, in data set [1], the “activity in human serotonin transporter assay” value was “active”. For the same compound, in data set [2], the “Solution Stability (time stable)” value is recorded as “at least 24 hours”. Besides, the solubility in “pH-solubility profile” (pH 4.4, aqueous buffer, Final pH 4.40) was 3910 µg/mL (≈ 14.7 mM); in the data set “pH-solubility profile” (pH 7.1, aqueous buffer, Final pH 7.10), 3470 µg/mL (≈ 13.1 mM); in the data set “pH-solubility profile” (pH 8.8, aqueous buffer, Final pH 8.80) it was 2960 µg/mL (≈ 11.2 mM); in the data set “pH-solubility profile” (simulated gastric fluid, Final pH 1.25), 13600 µg/mL (≈ 51.1 mM). Further, in “Hygroscopicity profile”, the Hygroscopicity result is on record as “Non-hygroscopic”. Further, the “Hygroscopicity, weight gain” value in the data set “Hygroscopicity profile” (@ 70% RH) stood at 2%; in the data set “Hygroscopicity profile” (@ 90% RH, weight gain was lost when returned to 10% RH or 0% RH), 6%.

Values taken from patent US7595340B2, “Serotonin and norepinephrine reuptake inhibitor and uses thereof” (Wyeth, priority 2005, dated 2009).
